US20260139017A1, “COMPOSITIONS AND METHODS USING REELIN IN ALZHEIMER'S DISEASE” (The General Hospital Corporation, priority 2022, published 2026)

Tests used:
[1] = Surface plasmon resonance (SPR) binding of CTR-RELN peptides to heparin-coated chip
Method: Surface plasmon resonance assay (SPR) was used for performing binding kinetics using a Biacore 3000 Instrument (GE Healthcare) at 25° C. following previously published protocols (7 24) as fee-for-service by Precision Antibody (Maryland, USA). Biotin-labeled heparin (B9806, Sigma Aldrich) was covalently linked to streptavidin-coated chip and unoccupied sites were blocked with biocytin. Antigen was flowed over the chip using a range of single analyte concentrations prepared in DPBS buffer and using a flow rate of 30 μL/min. Binding of antigen to the ligand was monitored in real time to obtain on (ka) and off (kd) rates. The equilibrium constant (KD) was calculated from the observed ka and kd. Accuracy of the SPR analysis was determined via Chi square (χ2) analysis as described in the statistical analysis section. We included in the analyses the WT and H3447R peptides and peptides with the hypothetical H3447D change ([…])(SEQ ID NO:57) and the H3447K change ([…])(SEQ ID NO:58), also produced and purified by Innovagen (Sweden).
Surface plasmon resonance assay (SPR) was used for performing binding kinetics using a Biacore 3000 Instrument (GE Healthcare) at 25° C. following previously published protocols 34 24 fee-for-service by Precision Antibody (Maryland, USA). Heparin was covalently linked to streptavidin coated chip at 13 response units (RU) concentration and unoccupied sites were blocked with biocytin. Antigen was flowed over the chip using a range of single analyte concentrations prepared in DPBS buffer and using a flow rate of 30 μL/min. Binding of antigen to the ligand was monitored in real time to obtain on (ka) and off (kd) rates. The equilibrium constant (KD) was calculated from the observed ka and kd. Accuracy of the SPR analysis was determined via Chi square (2) analysis as described in the statistical analysis section.

[2] = Heparin HPLC, peak retention time in KCl elution; type: binding; settings: isocratic 1M KCl elution, long and short peptides
Method: […] 50 μl of 0.3 μg/μL uncleaved or cleaved WT Reelin peptide was used at 0.3 ml/min in 0.15MKCl, 10 mM PBS. 0-13.5 min: 0.15M KCl to load sample, 13.5-14.5 min: ramp to 0.5M KCl, 14.5-24.5 min: 0.5-1M KCl gradient (ramp), 24.5-45 min: 1M KCl (isocratic elution), 45-55 min: 1M KCl at 0.6 ml/min (wash), 55.0-56.0 min: ramp to 0.15M KCl at 0.3 ml/min, 56.0-59.0 min: 0.15M KCl (reset column). Fluorescence Intensities were measured at an excitation wavelength of 260 nm and emission wavelength of 290 nm, based on fluorescence properties of aromatic amino acids. To assess fluorescence properties of peptides, 15 ul of ˜0.6 ug/mL of peptide was diluted in 500 μL of 0.15MKCl, 10 mM PBS, and peak excitation and emission of peptides was calculated from the 2D graphical data.
The column chromatography method was adapted from previous research from the laboratory (2). Based on the column chromatography data, the initial protocol used a NaCl gradient from 0-1 M and a 5M salt wash to reset the HPLC column. However, the high salt gradient was corrosive to the HPLC machine parts. Therefore, KCl was considered because the […]. A lower molar concentration of a buffer with KCl could be used to disrupt heparin—Reelin CTR interactions compared to NaCl to help keep the HPLC pumps free of residual salts and potential corrosion. Since a lower concentration of salt was used, the amount of time needed at an […] hold of 1M KCl was extended until the peptide signal could not be detected before the column was equilibrated for the next sample.

[3] = Isothermal titration calorimetry (ITC) of CTR-RELN with heparin; type: binding; settings: titrated with 5 μM heparin, vs WT

heparin affinity/interaction relative to WT, in words ([1]; SPR kinetic constants): about twice
interaction/affinity with heparin relative to WT ([1]; SPR, kinetic data, vs RELN WT peptide): ~2 fold
Sequence: RKQNYMMNFSRQHGLRRFYNRRRRSLRRYP [CTR-RELN H3447R]
peak retention time on heparin HPLC ([2]; listed as H3447R): increased later peak retention times
peak retention time on heparin HPLC ([2]; listed as H3447R Reelin): significantly later peak retention time
peak retention time on heparin HPLC ([2]; listed as RELN H3447R): delayed peak times
thermodynamics of heparin interaction [3]: enhanced interactions
